Experimental data as given in patent publication US20260001898A1, “Heteroaryl compounds as inhibitors of TYK2/JAK1, composition and application thereof” (Accro Bioscience (HK) Limited, priority 2022, published 2026).

System: IFNα induced TYK2/JAK1 mediated STAT activation
Experiment: Luciferase assay in L929 ISRE cells stimulated with IFN-α
Format: cell-based
Details: Mus musculus, IFN-α 100 ng/mL; for inhibition at 0.05 µM: 50 nM compound, read-out: Inhibitory activity % (50 nM); for inhibition at 0.2 µM: 200 nM compound, read-out: Inhibitory activity % (200 nM); for inhibition at 1 µM: 1000 nM compound, read-out: Inhibitory activity % (1000 nM)
Procedure: • 1. L929 ISRE cells (5000 cells/well) were seeded on 96-well plates and incubated overnight at room temperature-; • 2. The cells were pretreated by adding different concentrations (10 nM, 50 nM, 100 nM, 200 nM or 1000 nM) of the test compounds for 2 hours; • 3. Added IFN-α (100 ng/mL) to stimulate cells for 6 hours; • 4. Removed the upper medium, add PBS (100 μL) and washed, then removed PBS; • 5. Added PLB lysis solution (50 μL) to each well, shook the well for 15 minutes; • 6. Transferred PLB lysis solution (30 μL) to a new 96-well whiteboard, added LAR II reagent (LAR II), then quickly read the 450 nm OD value with a plate washer; • 7. Added Stop & Glo reagent (30 μL), then read the 450 nm OD value using the plate washer. • 8. The final result was the OD value in step 6/OD value in step 7.

Compound | inhibition at 0.05 µM [%] | inhibition at 0.2 µM [%] | inhibition at 1 µM [%]
COc1c(Nc2cc(NC(=O)C3CC3)nnc2C(N)=O)ncnc1-c1cc(P(=O)(C2CC2)C2CC2)n(C)n1 [Compound A3, 6-(cyclopropanecarboxamido)-4-((6-(5-(dicyclopropylphosphoryl)-1-methyl-1H-pyrazol-3-yl)-5-methoxypyrimidin-4-yl)amino)pyridazine-3-carboxamide] | 34 | 39 | 71
COc1c(Nc2cc(Nc3ccccn3)nnc2C(N)=O)cccc1-c1cc(P(=O)(C2CC2)C2CC2)n(C)n1 [Compound A4, 4-((3-(5-(dicyclopropylphosphoryl)-1-methyl-1H-pyrazol-3-yl)-2-methoxyphenyl)amino)-6-(pyridin-2-ylamino)pyridazine-3-carboxamide] | 61 | 93 | 99
COc1ccc(Nc2cc(Nc3cccc(-c4cc(P(=O)(C5CC5)C5CC5)n(C)n4)c3OC)c(C(N)=O)nn2)nc1 [Compound A5] | 91 | 97 | 99
CCP(=O)(CC)c1cc(-c2cccc(Nc3cc(NC(=O)C4CC4)nnc3C(N)=O)c2OC)nn1C [Compound A6, 6-(cyclopropanecarboxamido)-4-((3-(5-(diethylphosphoryl)-1-methyl-1H-pyrazol-3-yl)-2-methoxyphenyl)amino)pyridazine-3-carboxamide] | 23 | 28 | 96
COc1c(Nc2cc(NC(=O)C3CC3)nnc2C(N)=O)cccc1-c1ncc(P(C)(C)=O)cn1 [Compound A7, 6-(cyclopropanecarboxamido)-4-((3-(5-(dimethylphosphoryl)pyrimidin-2-yl)-2-methoxyphenyl)amino)pyridazine-3-carboxamide] | 18 | 25 | 64
COc1c(Nc2cc(N3CCCC3)nnc2C(N)=O)cccc1-c1cc(P(=O)(C2CC2)C2CC2)n(C)n1 [Compound A11, 4-((3-(5-(dicyclopropylphosphoryl)-1-methyl-1H-pyrazol-3-yl)-2-methoxyphenyl)amino)-6-(pyrrolidin-1-yl)pyridazine-3-carboxamide] | 6 | 86 | 95
COc1c(-c2cc(P(=O)(C3CC3)C3CC3)n(C)n2)ccnc1Nc1cc(N)nnc1C(N)=O [Compound A13, 6-Amino-4-((4-(5-(dicyclopropylphosphoryl)-1-methyl-1H-pyrazol-3-yl)-3-methoxypyridin-2-yl)amino)pyridazine-3-carboxamide] | 9 | 71 | 95
CCP(=O)(CC)c1cnc(-c2cccc(Nc3cc(NC(=O)C4CC4)nnc3C(N)=O)c2OC)nc1 [Compound A14] |  | 23 | 76
COc1c(-c2cc(P(=O)(C3CC3)C3CC3)n(C)n2)ccnc1Nc1cc(NC(=O)C2CC2)nnc1C(N)=O [Compound A18, 6-(cyclopropanecarboxamido)-4-((4-(5-(dicyclopropylphosphoryl)-1-methyl-1H-pyrazol-3-yl)-3-methoxypyridin-2-yl)amino)pyridazine-3-carboxamide] | 62 | 79 | 79
COc1c(Nc2nc(NC(=O)C3CC3)ncc2C(N)=O)cccc1-c1cc(P(=O)(C2CC2)C2CC2)n(C)n1 [Compound A19, 2-(cyclopropanecarboxamido)-4-((3-(5-(dicyclopropylphosphoryl)-1-methyl-1H-pyrazol-3-yl)-2-methoxyphenyl)amino)pyrimidine-5-carboxamide] |  | 28 | 71
CNC(=O)Nc1cc(Nc2cccc(-c3cc(P(=O)(C4CC4)C4CC4)n(C)n3)c2OC)c(C(N)=O)nn1 [Compound A21] | 16 | 39 | 74
COC(=O)Nc1cc(Nc2cccc(-c3cc(P(=O)(C4CC4)C4CC4)n(C)n3)c2OC)c(C(N)=O)nn1 [Compound A23] |  | 38 | 85
[2H]C([2H])([2H])n1nc(-c2cccc(Nc3cc(NC(=O)C4CC4)nnc3C(N)=O)c2OC)cc1P(=O)(C1CC1)C1CC1 [Compound A24, 6-(cyclopropanecarboxamido)-4-((3-(5-(dicyclopropylphosphoryl)-1-(methyl-d3)-1H-pyrazol-3-yl)-2-methoxyphenyl)amino)pyridazine-3-carboxamide] | 39 | 90 | 95
COc1c(Nc2cc(Nc3ccccn3)nnc2C(N)=O)cccc1-c1cc(P(C)(C)=O)n(C)n1 [Compound A26] |  |  | 80
COc1ccc(Nc2cc(Nc3cccc(-c4cc(P(C)(C)=O)n(C)n4)c3OC)c(C(N)=O)nn2)nc1 [Compound A30] | 14 | 58 | 90
COc1c(Nc2cc(Nc3ccc(C#N)cn3)nnc2C(N)=O)cccc1-c1cc(P(C)(C)=O)n(C)n1 [Compound A31] | 9 | 54 | 75
COc1c(Nc2cc(Nc3ccc(F)cn3)nnc2C(N)=O)cccc1-c1cc(P(C)(C)=O)n(C)n1 [Compound A33] | 45 | 62 | 81

Compound | inhibition at 0.05 µM [%] | inhibition at 0.2 µM [%] | inhibition at 1 µM [%]
COc1c(Nc2cc(Nc3cccc(C#N)n3)nnc2C(N)=O)cccc1-c1cc(P(=O)(C2CC2)C2CC2)n(C)n1 [Compound A34] | 17 | 67 | 95
COc1c(Nc2cc(Nc3ncccn3)nnc2C(N)=O)cccc1-c1cc(P(=O)(C2CC2)C2CC2)n(C)n1 [Compound A38] | 36 | 66 | 89
COc1c(Nc2cc(Nc3cnccn3)nnc2C(N)=O)cccc1-c1cc(P(=O)(C2CC2)C2CC2)n(C)n1 [Compound A39] | 59 | 78 | 97
COc1c(Nc2cc(Nc3ccncn3)nnc2C(N)=O)cccc1-c1cc(P(=O)(C2CC2)C2CC2)n(C)n1 [Compound A40] | 61 | 80 | 96
[2H]C([2H])([2H])n1ccc(Nc2cc(Nc3cccc(-c4cc(P(=O)(C5CC5)C5CC5)n(C)n4)c3OC)c(C(N)=O)nn2)n1 [Compound A41] | 55 | 90 | 95
CCn1ccc(Nc2cc(Nc3cccc(-c4cc(P(=O)(C5CC5)C5CC5)n(C)n4)c3OC)c(C(N)=O)nn2)n1 [Compound A42] | 76 | 90 | 92
COc1c(Nc2cc(Nc3ncccc3C#N)nnc2C(N)=O)cccc1-c1cc(P(=O)(C2CC2)C2CC2)n(C)n1 [Compound A43] | 0 | 18 | 64
COc1c(Nc2cc(NC(=O)C3C[C@H]3F)nnc2C(N)=O)cccc1-c1cc(P(=O)(C2CC2)C2CC2)n(C)n1 (stereo partly drawn) [Compound A47] | 8 | 19 | 62
COc1c(Nc2cc(NC(=O)C3CC3)nnc2C(N)=O)cccc1-c1cc(P(=O)(C2CC2)C2CC2)[nH]n1 [Compound A48, 6-(cyclopropanecarboxamido)-4-((3-(5-(dicyclopropylphosphoryl)-1H-pyrazol-3-yl)-2-methoxyphenyl)amino)pyridazine-3-carboxamide] | 17 | 56 | 76
COc1c(Nc2cc(Nc3cc(C)ccn3)nnc2C(N)=O)cc(F)cc1-c1cc(P(C)(C)=O)n(C)n1 [Compound A51, 4-((3-(5-(dimethylphosphoryl)-1-methyl-1H-pyrazol-3-yl)-5-fluoro-2-methoxyphenyl)amino)-6-((4-methylpyridin-2-yl)amino)pyridazine-3-carboxamide] | 55 | 82 | 86
COc1c(Nc2cc(Nc3cc(C)ccn3)nnc2C(N)=O)cccc1-c1cc(P(C)(C)=O)n(C2CC2)n1 [Compound A52] |  | 9 | 63
COc1c(-c2cc(P(C)(C)=O)n(C)n2)ccnc1Nc1cc(Nc2cc(C)ccn2)nnc1C(N)=O [Compound A55, 4-((4-(5-(dimethylphosphoryl)-1-methyl-1H-pyrazol-3-yl)-3-methoxypyridin-2-yl)amino)-6-((4-methylpyridin-2-yl)amino)pyridazine-3-carboxamide] | 34 | 63 | 90
[2H]C([2H])([2H])n1nc(-c2cc(F)cc(Nc3cc(Nc4cc(C)ccn4)nnc3C(N)=O)c2OC)cc1P(C)(C)=O [Compound A56] | 31 | 70 | 95
COc1c(Nc2cc(Nc3cc(C)ccn3)nnc2C(N)=O)cncc1-c1cc(P(C)(C)=O)n(C2CC2)n1 [Compound A58] |  |  | 86
[2H]C([2H])([2H])n1nc(-c2cccc(Nc3cc(Nc4cnccn4)nnc3C(N)=O)c2OC)cc1P(=O)(C1CC1)C1CC1 [Compound A59] |  |  | 86
COc1c(-c2cc(P(C)(C)=O)n(C3CC3)n2)ccnc1Nc1cc(Nc2cc(C)ccn2)nnc1C(N)=O [Compound A60] |  |  | 66
